Measurements taken from patent US8497276B2, “Substituted indolo-piperidine compounds” (ArQule, Inc., priority 2009, dated 2013).

Tests used:
NCI-H1299 = test: MTS Assay (cell growth inhibition), NCI-H1299; assay type: cell-based; settings: NCI-H1299 cells, 72 hours with test compound; concentration not given
In short: (§1)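 First, seed 3000 cells per well in low-serum (1% FBS) DMEM and culture 18 h. Next, add compounds prepared at 300× in DMSO and diluted 1:40 in DMEM; incubate 72 h. Finally, add MTS/PMS for 4 h and measure absorbance at 492 nm.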

Kato III = test: MTS Assay (cell growth inhibition), Kato III; assay type: cell-based; settings: Kato III cells, 72 hours with test compound; concentration not given
In short: as §1

PACA-2 = test: MTS Assay (cell growth inhibition), PACA-2; assay type: cell-based; settings: PACA-2 cells, 72 hours with test compound; concentration not given
In short: as §1

DLD-1 = test: MTS Assay (cell growth inhibition), DLD-1; assay type: cell-based; settings: DLD-1 cells, 72 hours with test compound; concentration not given
In short: as §1

PC-3 = test: MTS Assay (cell growth inhibition), PC-3; assay type: cell-based; settings: PC-3 cells, 72 hours with test compound; concentration not given
In short: as §1

Tec kinase = biological target: T1, Tec kinase (Homo sapiens, UniProt P42680); test: Tec Kinase Activity Assay; assay type: biochemical; settings: 75 μM ATP, Pyk-2 substrate; compound concentration not given
T1 sequence (P42680 1-631): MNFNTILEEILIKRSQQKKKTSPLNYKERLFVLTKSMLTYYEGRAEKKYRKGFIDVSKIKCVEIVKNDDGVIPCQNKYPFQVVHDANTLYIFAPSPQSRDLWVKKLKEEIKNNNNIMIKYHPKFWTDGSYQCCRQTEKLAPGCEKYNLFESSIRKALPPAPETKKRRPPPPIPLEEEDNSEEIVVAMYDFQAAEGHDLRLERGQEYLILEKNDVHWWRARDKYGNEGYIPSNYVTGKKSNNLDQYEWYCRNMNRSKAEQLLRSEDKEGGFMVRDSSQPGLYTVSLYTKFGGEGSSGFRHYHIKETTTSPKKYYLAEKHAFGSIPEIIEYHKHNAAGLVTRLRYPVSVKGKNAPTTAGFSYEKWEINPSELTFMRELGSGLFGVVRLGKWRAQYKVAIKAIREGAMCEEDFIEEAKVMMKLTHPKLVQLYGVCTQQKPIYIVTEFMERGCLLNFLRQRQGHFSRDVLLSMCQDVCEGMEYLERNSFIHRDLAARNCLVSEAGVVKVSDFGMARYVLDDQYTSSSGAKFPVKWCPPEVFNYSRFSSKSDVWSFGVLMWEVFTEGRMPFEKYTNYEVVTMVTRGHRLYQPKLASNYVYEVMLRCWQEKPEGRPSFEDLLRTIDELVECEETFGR
In short: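 TEC enzyme was preincubated 30 min with compound in buffer containing 75 μM ATP, 10 mM MgCl2, 2 mM DTT and 50 mM Tris-HCl. Pyk-2 substrate was then added for 2 h at room temperature. Phosphorylated product was captured on streptavidin plates and detected by anti-phosphotyrosine ELISA with an alkaline phosphatase/Attophos fluorescent read-out.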

MDA-MB 231 = test: MTS Assay (cell growth inhibition), MDA-MB 231; assay type: cell-based; settings: MDA-MB 231 cells, 72 hours with test compound; concentration not given
In short: as §1

Biochemical IC50 (% inhibition) Tec (Tec kinase): B (B = 50-79% inhibition)
SMILES: COc1ccc(C2c3[nH]c4ccccc4c3CCN2c2ncnc3[nH]ncc23)cc1 (stereo not drawn) [Compound 31, 1-(4-methoxyphenyl)-2-(1H-pyrazolo[3,4-d]pyrimidin-4-yl)-2,3,4,9-tetrahydro-1H-beta-carboline]
MTS cell kill data (% inhibition) NCI-H1299 (NCI-H1299): B (B = 50-79% inhibition)
MTS cell kill data (% inhibition) Kato III (Kato III): B (B = 50-79% inhibition)
MTS cell kill data (% inhibition) PACA-2 (PACA-2): B (B = 50-79% inhibition)
MTS cell kill data (% inhibition) DLD-1 (DLD-1): B (B = 50-79% inhibition)
MTS cell kill data (% inhibition) PC-3 (PC-3): C (C = <50% inhibition)
MTS cell kill data (% inhibition) MDA-MB 231 (MDA-MB 231): B (B = 50-79% inhibition)
